Assay results taken from PubChem BioAssay (NCI).
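In this assay, cells in 96-well plates receive the compound at five concentrations for 48 hours. Endpoints are linearly interpolated between the surrounding concentrations. The concentration for 50% growth inhibition is given as GI50. Definition used: TGI = concentration required for complete inhibition of growth.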

Assays:
Test in all cases: inhibition of tumour cell growth, NCI panel, 48 h
MDA-N = tested on: MDA-N
786-0 renal = tested on: 786-0 renal
HCT-116 colon = tested on: HCT-116 colon
COLO 205 colon = tested on: COLO 205 colon
OVCAR-5 ovarian = tested on: OVCAR-5 ovarian
HOP-62 NSCLC = tested on: HOP-62 NSCLC
SK-MEL-28 melanoma = tested on: SK-MEL-28 melanoma
HS 578T breast = tested on: HS 578T breast
A498 renal = tested on: A498 renal

Compound	TGI (MDA-N) [µM]	TGI (786-0 renal) [µM]	TGI (HCT-116 colon) [µM]	TGI (COLO 205 colon) [µM]	TGI (OVCAR-5 ovarian) [µM]	TGI (HOP-62 NSCLC) [µM]	TGI (SK-MEL-28 melanoma) [µM]	TGI (HS 578T breast) [µM]	TGI (A498 renal) [µM]	GI50 (OVCAR-5 ovarian) [µM]	GI50 (SK-MEL-28 melanoma) [µM]	GI50 (HCT-116 colon) [µM]	GI50 (COLO 205 colon) [µM]	GI50 (HOP-62 NSCLC) [µM]	GI50 (A498 renal) [µM]	GI50 (HS 578T breast) [µM]
COc1ccc(C2c3cc4c(cc3OC(N3CCCCC3)C2C)OCO4)cc1 (stereo unspecified)	> 100	> 100	> 100	> 100	> 100	> 100	> 100	87.8								
CCOc1cc(C2SCC(=O)N2c2nc3cc4sc(N5C(=O)CSC5c5ccc(O)c(OCC)c5)nc4cc3s2)ccc1O (stereo unspecified)	> 100	> 100	> 100	> 100	> 100	> 100	> 100	> 100	> 100							
c1ccc(C2=C(c3ccccc3)P(c3ccccc3)C2)cc1 (stereo unspecified)	> 100	> 100	> 100	> 100	> 100	> 100	> 100	> 100	> 100							
COc1ccc2c(c1)CC[C@@H]1[C@@H]2CC[C@]2(C)C(=O)/C(=C/c3cc(OC)c(OC)c(OC)c3)C[C@@H]12		39	> 100	> 100	62.4	30.7			> 100							
N#Cc1c(N2CCN(c3ccc([N+](=O)[O-])cc3)CC2)[n+](=O)c2ccc(Cl)cc2n1[O-]	> 26.1	4.58			29.1		> 39.2	> 100	2.44							
CCS(=O)(=O)c1c2cc(OC)ccc2nc2ccc(OC)cc12	> 100	> 100	> 100	> 100	> 100	> 100	> 100		> 100							
COc1cc(/C=C/C(=O)OC[C@H](Br)[C@H](OC(C)=O)c2ccc3c(c2)OCO3)cc(OC)c1OC		> 100	> 100	> 100	> 100	> 100	> 100		> 100							
O=C(O)/C=C/C(=O)O	> 100	> 100	> 100	> 100	> 100	> 100	> 100	> 100								
Cn1ccc(C(=O)NCCCCCNC(=O)c2ccn(C)c(=O)c2O)c(O)c1=O	> 100	> 100	> 100	> 100			> 100	> 100	> 100							
NC(=O)CS(=O)CC(N)C(=O)O (stereo unspecified)	> 100	> 100	> 100		> 100	> 100	> 100	> 100	> 100							
COc1ccc2c(c1)-c1nn(CCN(C)C)c3ccc(C(=O)NCCCN(C)CCCNC(=O)c4ccc5c6c(nn5CCN(C)C)-c5cc(OC)ccc5Nc46)c(c13)N2	0.564	1.9	1.74	0.224	1.66	1.32	0.48		0.633							
O=C1C[C@H](c2ccccc2)C2(C(=O)c3ccccc3C2=O)[C@H](c2ccccc2)C1	> 100		> 100	> 100	> 100	96	> 100	> 100	> 100							
COc1cc(C(SCc2ccccc2)SCc2ccccc2)ccc1O	> 10	> 10	> 10	> 10		> 10	> 10	> 10	> 10							
CC1(C)[C@@H]2C[C@H]1C(Cc1cccc(C[C@H]3c4cc(-c5ccccn5)ncc4[C@H]4C[C@@H]3C4(C)C)c1)c1cc(-c3ccccn3)ncc12 (stereo partly specified)	> 100		> 100	> 58.6	> 100	15.5	> 100	> 100	> 57							
CC1CCC2(CC1)N=C1CCC(C)CC1C1(CCC(C)CC1)N2 (stereo unspecified)	> 100	> 100	> 100	> 100	> 100		> 100	> 100	> 100							
COc1cc2c(cc1Cl)n([O-])c(C#N)c(N1CCN(c3ccc([N+](=O)[O-])cc3)CC1)[n+]2=O	> 100	> 100	> 100	> 100	> 100	> 62.8	> 100	> 57.5								
O=c1[nH]c2ccccc2c2oc(-c3ccccc3)nc12	46.6	56.1	69.3	37.6	> 100	39		71.9	59.5							

Compound	TGI (MDA-N) [µM]	TGI (786-0 renal) [µM]	TGI (HCT-116 colon) [µM]	TGI (COLO 205 colon) [µM]	TGI (OVCAR-5 ovarian) [µM]	TGI (HOP-62 NSCLC) [µM]	TGI (SK-MEL-28 melanoma) [µM]	TGI (HS 578T breast) [µM]	TGI (A498 renal) [µM]	GI50 (OVCAR-5 ovarian) [µM]	GI50 (SK-MEL-28 melanoma) [µM]	GI50 (HCT-116 colon) [µM]	GI50 (COLO 205 colon) [µM]	GI50 (HOP-62 NSCLC) [µM]	GI50 (A498 renal) [µM]	GI50 (HS 578T breast) [µM]
CN(C)CC(NC(NCS)C(=O)NCCNc1ccc(NCCNC(=O)C(NCS)NC(CN(C)C)OCCl)c2c1C(=O)c1c(O)ccc(O)c1C2=O)OCCl (stereo unspecified)	1.09		1.72	3.28		0.482		3.05	2.76	0.713	2.18					
COc1ccc(/C=C2\CN(C)Cc3c2[nH]c(=O)c(C#N)c3-c2ccc(OC)cc2)cc1	> 100	51.1	> 100	> 100	> 100	> 100	> 100	> 100								
O=C(Nc1cccc(-n2ccc3c(NC(=O)c4ccccc4)nccc32)c1)c1cc(N2CCOCC2)cc(C(F)(F)F)c1			> 29.8	0.472	> 100	> 100	> 100	32.6	0.729	0.696	0.085	0.0347	0.157	0.168	0.0315	0.0621
Cc1cccc2c1C/C(=C\c1cccc(C)c1C(=O)O)C2=O		> 100	> 100	> 100	> 100	> 100	> 100	> 100	> 100							
O=C(NN1C(=O)C=CC1=O)c1ccccc1Nc1ccccc1C(=O)NN1C(=O)C=CC1=O	> 100	> 100	> 100	> 100	> 100	> 100	> 100									
CC(C)CCC[C@@H](C)[C@H]1CCC2C3=CCC4C(=O)C=CC(=O)C4C3CC[C@@]21C (stereo partly specified)			1.03	0.183	> 100	> 100	> 100	> 20.9	1.14	0.212	0.449	0.0551	0.0545	0.552	0.301	0.528
COC1/C=C/C(C)C(C(C)C(OC)C(C)CCC(=O)C(C)C(C/C=C/N(C)C=O)OC)OC(=O)/C=C/C=C(\C)CC(OC)C(OC)C2=CC(=O)O[C@@H](C(C)C(OC)CC(OC)/C=C/C(C)C(O)C1)[C@H]2O (stereo partly specified)		0.434	0.207		0.623	0.218	0.878	0.16	0.233							
O=C(C#Cc1cn(C2CC(O)C(CO)O2)c(=O)[nH]c1=O)c1ccccc1 (stereo unspecified)	> 100	> 100	> 100	65.7		> 100	> 100	> 100								
O=C(O)C1SCCS1	> 100	> 100	> 100	> 100	> 100	> 100	> 100		> 100							
COC(=O)CCN(CCC(=O)OC)C1CC1		> 100	> 100	> 100	> 100	> 100	> 100	> 100	> 100							
COc1cc(CNc2nc3cc(C(F)(F)F)ccc3nc2C)cc(OC)c1OC	33.2		72.2	30.2		71.3	65	39.7								
Cc1cc([N+](=O)[O-])ccc1N=NC(=O)NNc1ccc([N+](=O)[O-])cc1C	29.9	30.6	28.2		31.8	29	29.9		27.2							
NC(=O)NCCCC(NC(=O)OCCCCCn1ccc(=O)[nH]c1=O)C(=O)O (stereo unspecified)	> 100	> 100	> 100	> 100	> 100	> 100	> 100	> 100								
CN(c1ccccc1Cl)S(=O)(=O)c1ccccc1[N+](=O)[O-]	> 100	> 100	> 100	> 100	> 100	> 100	> 100	> 100								
COc1ccc2c(c1)-c1oc3ccccc3c(=O)c1CO2	78.1	> 100	> 100	> 100	> 100	> 100										
O=C(c1ccccc1)N1C(=S)N(c2ccc([N+](=O)[O-])cc2)C(=Nc2ccccc2)C1=Nc1ccccc1	> 100	> 100		> 100	> 100	> 100	> 100	> 100								
CCOC(=O)C(NCc1cccc(C(F)(F)F)c1)(NC(=O)c1ccccc1)C(F)(F)F (stereo unspecified)	> 100	79.5	> 100	29.9	> 100	> 100	63.6	> 100								
